From patent US6489364B2, “Antiviral protease inhibitors” (priority 1997, dated 2002)
Values after ≈ are worked out from the molar mass of the structure shown. Read-outs that look alike come from different tables or passages of the source.

Legend:
purified HIV proteinase = target: T1, purified HIV proteinase (Human immunodeficiency virus type 1 group M subtype B, UniProt P04585); experiment: biochemical
T1 construct: purified HIV proteinase
Protocol: Representative compounds were tested for HIV protease activity in a spectrophotometric enzyme assay using the chromogenic substrate His-Lys-Ala-Arg-Val-Leu-p-nitro-Phe-Glu-Ala-Nle-Ser-amide and purified HIV proteinase. The rate of cleavage is followed by continuously registering the change in absorbance at 300 nm. […]

HIV-1 = HIV-1 infected MT4 cell culture, XTT assay; type: cell-based
Protocol: Compounds are also tested for HIV protease activity in cell culture. MT4 cells grown in RPMI 1640 cell culture medium including 10% fetal calf serum are infected with 10 TCID HIV-1 per 2×10^5 cells and cultured for 6 days. XTT is added and the amount of XTT formazan produced in the following 6 hours represents the number of surviving cells. Results are expressed as the ED50, that is the concentration in μg/ml of the compound of the invention which suppresses viral replication by 50%.

[1] = values in parentheses, affinity constant, read-out: (Ki μM)
[2] = Human immunodeficiency virus 1, 144 h, second part of Table 1, head EC50, MT4 cells, HIV-1, 6 days, XTT, read-out: EC50
[3] = Human immunodeficiency virus 1, MT4, 144 h

`O=C(N[C@H]1c2ccccc2C[C@H]1O)[C@H](OCc1ccc(F)cc1)[C@H](O)[C@@H](O)[C@@H](OCc1ccc(F)cc1)C(=O)N[C@H]1c2ccccc2C[C@H]1O` [Example 13, N1,N6-di[(1S,2R)-2-hydroxy-2,3-dihydro-1H-1-indenyl]-(2R,3R,4R,5R)-2,5-di(4-fluorobenzyloxy)-3,4-dihydroxyhexanediamide] gave a Ki (purified HIV proteinase; [1]) of 0.07 nM and an EC50 (HIV-1; [2]) of 0.2 µg/mL (≈ 0.29 µM).

Compound `CNC(=O)C(NC(=O)C(OCc1ccc(-c2ccccc2)cc1)C(O)C(O)C(OCc1ccc(-c2ccccc2)cc1)C(=O)NC(C(=O)NC)C(C)C)C(C)C` [Example 14, N1,N6-di[(1S)-2-methyl-1-(methylcarbamoylpropyl]-(2R,3R,4R,5R)-2,5-di[(4-phenylbenzyl)oxy]-3,4-dihydroxyhexanediamide] has a Ki (purified HIV proteinase) of 0.67 nM and an EC50 (HIV-1; [3]) of 0.04 µg/mL (≈ 0.0522 µM).

`CNC(=O)[C@@H](NC(=O)[C@H](OCc1ccc(-c2ccsc2)cc1)[C@H](O)[C@@H](O)[C@@H](OCc1ccc(-c2ccsc2)cc1)C(=O)N[C@H](C(=O)NC)C(C)C)C(C)C` [Example 15, N1,N6-di[(1S)-2-methyl-1-(methylcarbamoyl)propyl]-(2R,3R,4R,5R)-2,5-di[4-(3-thienyl)benzyloxy]-3,4-dihydroxyhexanediamide] gave a Ki (purified HIV proteinase) of 1.2 nM and an EC50 (HIV-1; [3]) of 0.03 µg/mL (≈ 0.0385 µM).

For `CNC(=O)[C@@H](NC(=O)[C@H](OCc1ccccc1)[C@H](O)[C@@H](O)[C@@H](OCc1ccccc1)C(=O)N[C@H](C(=O)NC)c1ccccc1)c1ccccc1` [Example 16, N1,N6-di[(1S)-1-phenyl-1-(methylcarbamoyl)methyl]-(2R,3R,4R,5R)-2,5-di(benzyloxy)-3,4-dihydroxyhexanediamide], the Ki (purified HIV proteinase; read-out: (Ki μM)) was 2.3 nM and the EC50 (HIV-1; [3]) was 1 µg/mL (≈ 1.46 µM).

Compound `CNC(=O)C(NC(=O)C(OCc1cccc(F)c1)C(O)C(O)C(OCc1cccc(F)c1)C(=O)NC(C(=O)NC)C(C)C)C(C)C` (stereo not shown) [Example 17] has a Ki (purified HIV proteinase; [1]) of 2 nM and an EC50 (HIV-1; [2]) of 0.8 µg/mL (≈ 1.23 µM).

For `O=C(N[C@H]1c2ccccc2C[C@H]1O)[C@H](OCc1cccc(F)c1)[C@H](O)[C@@H](O)[C@@H](OCc1cccc(F)c1)C(=O)N[C@H]1c2ccccc2C[C@H]1O` [Example 18, N1,N6-di[(1 S,2R)-2-hydroxy-2,3-dihydro-1H-1-indenyl]-(2R,3R,4R,5R)-2,5-di(3-fluorobenzyloxy)-3,4-dihydroxyhexanediamide], the Ki (purified HIV proteinase; [1]) was 50 nM and the EC50 (HIV-1; [2]) was 0.5 µg/mL (≈ 0.726 µM).

`CNC(=O)C(NC(=O)C(OCc1ccccc1F)C(O)C(O)C(OCc1ccccc1F)C(=O)NC(C(=O)NC)C(C)C)C(C)C` [Example 19, N1,N6-di[(1S)-2-methyl-1-(methylcarbamoyl)propyl]-(2R,3R,4R,5R)-2,5-di[4-(2-fluorobenzyl)oxy]-3,4-dihydroxyhexanediamide] gave a Ki (purified HIV proteinase; [1]) of 0.5 nM and an EC50 (HIV-1; [2]) of 0.8 µg/mL (≈ 1.23 µM).

Work on `CNC(=O)C(NC(=O)C(OCc1ccc(F)cc1F)C(O)C(O)C(OCc1ccc(F)cc1F)C(=O)NC(C(=O)NC)C(C)C)C(C)C` [Example 20, N1,N6-di[(1S)-2-methyl-1-(methylcarbamoyl)propyl]-(2R,3R,4R,5R)-2,5-di[4-(2,4-difluorobenzyl)oxy]-3,4-dihydroxyhexanediamide] yielded a Ki (purified HIV proteinase; [1]) of 0.1 nM and an EC50 (HIV-1; [2]) of 0.9 µg/mL (≈ 1.31 µM).

`O=C(N[C@H]1c2ccccc2C[C@H]1O)[C@H](OCc1ccc(F)cc1F)[C@H](O)[C@@H](O)[C@@H](OCc1ccc(F)cc1F)C(=O)N[C@H]1c2ccccc2C[C@H]1O` [Example 21, N1,N6-di[(1S,2R)-2-hydroxy-2,3-dihydro-1H-1-indenyl]-(2R,3R,4R,5R)-2,5-di(2,4-difluorobenzyloxy)-3,4-dihydroxyhexanediamide] was tested, and the Ki (purified HIV proteinase; [1]) was 0.38 nM and the EC50 (HIV-1; [2]) was 0.1 µg/mL (≈ 0.138 µM).

`CNC(=O)C(NC(=O)C(OCc1ccc(-c2ccccn2)cc1)C(O)C(O)C(OCc1ccc(-c2ccccn2)cc1)C(=O)NC(C(=O)NC)C(C)C)C(C)C` [Example 22, N1,N6-di[(1S)-2-methyl-1-(methylcarbamoyl)propyl]-(2R,3R,4R,5R)-2.5-di[4-(2-pyridyl)benzyloxy]-3,4-dihydroxyhexanediamide] was tested, and the Ki (purified HIV proteinase) was 0.61 nM and the EC50 (HIV-1; [3]) was 0.4 µg/mL (≈ 0.52 µM).

Compound `CNC(=O)[C@@H](NC(=O)[C@H](OCc1ccc(-c2cccc([N+](=O)[O-])c2)cc1)[C@H](O)[C@@H](O)[C@@H](OCc1ccc(-c2cccc([N+](=O)[O-])c2)cc1)C(=O)N[C@H](C(=O)NC)C(C)C)C(C)C` [Example 24, N1,N6-di[(1S)-2-methyl-1-(methylcarbamoyl)propyl]-(2R,3R,4R,5R)-2,5-di[(4-(3-nitrophenyl)benzyl)oxy]-3,4-dihydroxyhexanediamide] has a Ki (purified HIV proteinase) of 1.4 nM and an EC50 (HIV-1; [3]) of 0.4 µg/mL (≈ 0.467 µM).

With `CNC(=O)[C@@H](NC(=O)[C@H](OCc1ccc(-c2cccs2)cc1)[C@H](O)[C@@H](O)[C@@H](OCc1ccc(-c2cccs2)cc1)C(=O)N[C@H](C(=O)NC)C(C)C)C(C)C` [Example 25, N1,N6-di[(1S)-2-methyl-1-(methylcarbamoyl)propyl]-(2R,3R,4R,5R)-2,5-di[4-(2-thienyl)benzyloxy]-3,4-dihydroxyhexanediamide] the Ki (purified HIV proteinase) was 0.17 nM and the EC50 (HIV-1; [3]) was 0.02 µg/mL (≈ 0.0257 µM).

`O=C(N[C@H]1c2ccccc2C[C@H]1O)[C@@H](C[C@@H](O)[C@@H](OCc1ccccc1)C(=O)N[C@H]1c2ccccc2C[C@H]1O)OCc1ccccc1` [Example 26, N1,N6-di[(1S,2R)-2-hydroxy-2,3-dihydro-1H-1-indenyl]-(2R,3R,5R)-2,5-di(benzyloxy)-3-hydroxyhexanediamide] was tested, and the Ki (purified HIV proteinase; [1]) was 0.97 nM and the EC50 (HIV-1; [2]) was 0.8 µg/mL (≈ 1.26 µM).

Compound `O=C(NCc1c(F)cccc1Cl)[C@H](OCc1ccccc1F)[C@H](O)[C@@H](O)[C@@H](OCc1ccccc1F)C(=O)N[C@H]1c2ccccc2C[C@H]1O` [Example 27, N1-[(1S,2R)-2-hydroxy-2,3-dihydro-1H-1-indenyl]-N6-(2-chloro-6-fluorobenzyl)-(2R,3R,4R,5R,)-2,5-di(2-fluorobenzyloxy)-3,4-dihydroxyhexanediamide] has a Ki (purified HIV proteinase; [1]) of 1.4 nM and an EC50 (HIV-1; [2]) of 0.8 µg/mL (≈ 1.14 µM).

Compound `CNC(=O)[C@@H](NC(=O)[C@H](OCc1ccc(/C=C/C(=O)OC)cc1)[C@H](O)[C@@H](O)[C@@H](OCc1ccc(/C=C/C(=O)OC)cc1)C(=O)N[C@H](C(=O)NC)C(C)C)C(C)C` [Example 31] has a Ki (purified HIV proteinase) of 0.09 nM and an EC50 (HIV-1; [3]) of 0.3 µg/mL (≈ 0.383 µM).

`CCOC1=C(c2ccc(CO[C@@H](C(=O)N[C@H](C(=O)NC)C(C)C)[C@H](O)[C@@H](O)[C@@H](OCc3ccc(C4=C(OCC)C(=O)CCC4)cc3)C(=O)N[C@H](C(=O)NC)C(C)C)cc2)CCCC1=O` [Example 32] showed a Ki (purified HIV proteinase; [1]) of 0.3 nM and an EC50 (HIV-1; [2]) of 0.2 µg/mL (≈ 0.224 µM).

`CNC(=O)[C@@H](NC(=O)[C@H](OCc1ccc(C2=C(O)C(=O)CCC2)cc1)[C@H](O)[C@@H](O)[C@@H](OCc1ccc(C2=C(O)C(=O)CCC2)cc1)C(=O)N[C@H](C(=O)NC)C(C)C)C(C)C` [Example 33] gave a Ki (purified HIV proteinase) of 0.5 nM and an EC50 (HIV-1; [3]) of 0.2 µg/mL (≈ 0.24 µM).
